Patent publication US8435978B2, “Substituted sulfonamide compounds” (Gruenenthal GmbH, priority 2006, dated 2013)

Target: T1, human B1R receptor (Homo sapiens, UniProt P46663)
T1 construct: host or cells: CHO K1 cells (Chinese hamster ovary), stably transfected
T1 sequence (P46663 1-353): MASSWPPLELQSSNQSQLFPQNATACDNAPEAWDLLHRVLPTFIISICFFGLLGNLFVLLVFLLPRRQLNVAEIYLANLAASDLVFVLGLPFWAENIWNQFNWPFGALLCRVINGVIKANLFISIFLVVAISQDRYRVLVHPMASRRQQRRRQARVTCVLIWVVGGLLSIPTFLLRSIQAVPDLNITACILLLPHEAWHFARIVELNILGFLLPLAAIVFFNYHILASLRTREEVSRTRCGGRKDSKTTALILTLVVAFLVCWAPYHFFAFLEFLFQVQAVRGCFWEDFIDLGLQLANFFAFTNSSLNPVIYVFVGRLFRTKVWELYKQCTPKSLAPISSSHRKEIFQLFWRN
Assay: Functional study on the bradykinin receptor 1 (B1R), FLIPR Ca2+ assay, hB1R cells
Format: cell-based
Details: test substance 10 μM; hB1R CHO K1 cells; agonist Lys-Des-Arg9-bradykinin 0.5 nM; % inhibition compared with the maximum achievable inhibition
Procedure, shortened: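 CHO K1 cells stably expressing human or rat B1R, Fluo-4-loaded; test compound 10 μM added first (activation % vs agonist), then after 10 min 0.5 nM Lys-Des-Arg9-bradykinin (human) or 100 nM Des-Arg9-bradykinin (rat). Ca2+ peak fluorescence by FLIPR; % inhibition relative to maximum achievable inhibition.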

## COc1cc(C)c(S(=O)(=O)N2CCCCC2COCC(=O)N2CCN(C3CCN(C)CC3)CC2)c(C)c1 (stereo not shown) [Example 8, 2-[1-(4-methoxy-2,6-dimethyl-phenylsulfonyl)-piperidin-2-ylmethoxy]-1-[4-(1-methyl-piperidin-4-yl)-piperazin-1-yl]-ethanone]
  B1R Antagonism, human [10 μM] % Inhibition: 101.66%
